Measurements published in the supplement of paper PMC10307832.

Legend:
Assay in all cases: relative viability (nuclei count vs DMSO), 5 days (fraction); higher = more cells survive
BI-D1870 + Tozasertib = compound: CC(C)CCN1c2nc(Nc3cc(F)c(O)c(F)c3)ncc2N(C)C(=O)C1C [BI-D1870] + Cc1cc(Nc2cc(N3CCN(C)CC3)nc(Sc3ccc(NC(=O)C4CC4)cc3)n2)n[nH]1 [Tozasertib] (partner 0.1 µM)
Method in brief: (§1)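 Relative viability divides the nuclei count in treated wells by that in vehicle wells. Lung cancer cell lines were seeded in 1536-well plates, dosed by pin tool the next day, and fixed and stained after 5 days in one step with final 0.05% Triton X-100, 1% formaldehyde and 1 ug/ml Hoechst. Dosing was a single drug or a fixed anchor-drug dose plus five library-drug doses (not always all listed) in √10 steps, and values are medians of duplicate plates imaged at 4×.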

BI-D1870 + Bortezomib = compound: CC(C)CCN1c2nc(Nc3cc(F)c(O)c(F)c3)ncc2N(C)C(=O)C1C [BI-D1870] + CC(C)C[C@H](NC(=O)[C@H](Cc1ccccc1)NC(=O)c1cnccn1)B(O)O [Bortezomib] (partner 0.002 µM)
Method in brief: as §1

BI-D1870 + Lapatinib = compound: CC(C)CCN1c2nc(Nc3cc(F)c(O)c(F)c3)ncc2N(C)C(=O)C1C [BI-D1870] + CS(=O)(=O)CCNCc1ccc(-c2ccc3ncnc(Nc4ccc(OCc5cccc(F)c5)c(Cl)c4)c3c2)o1 [Lapatinib] (partner 2 µM)
Method in brief: as §1

BI-D1870 + Olaparib = compound: CC(C)CCN1c2nc(Nc3cc(F)c(O)c(F)c3)ncc2N(C)C(=O)C1C [BI-D1870] + O=C(c1cc(Cc2n[nH]c(=O)c3ccccc23)ccc1F)N1CCN(C(=O)C2CC2)CC1 [Olaparib] (partner 8 µM)
Method in brief: as §1

Row | Cell Line | relative viability (BI-D1870 + Tozasertib; first compound 0.04 µM) | relative viability (BI-D1870 + Tozasertib; first compound 0.1265 µM) | relative viability (BI-D1870 + Tozasertib; first compound 0.4 µM) | relative viability (BI-D1870 + Tozasertib; first compound 1.265 µM) | relative viability (BI-D1870 + Tozasertib; first compound 4 µM) | relative viability (BI-D1870 + Bortezomib; first compound 0.04 µM) | relative viability (BI-D1870 + Bortezomib; first compound 0.1265 µM) | relative viability (BI-D1870 + Bortezomib; first compound 0.4 µM) | relative viability (BI-D1870 + Bortezomib; first compound 1.265 µM) | relative viability (BI-D1870 + Bortezomib; first compound 4 µM) | relative viability (BI-D1870 + Lapatinib; first compound 0.04 µM) | relative viability (BI-D1870 + Lapatinib; first compound 0.1265 µM) | relative viability (BI-D1870 + Lapatinib; first compound 0.4 µM) | relative viability (BI-D1870 + Lapatinib; first compound 1.265 µM) | relative viability (BI-D1870 + Lapatinib; first compound 4 µM) | relative viability (BI-D1870 + Olaparib; first compound 0.04 µM) | relative viability (BI-D1870 + Olaparib; first compound 0.1265 µM) | relative viability (BI-D1870 + Olaparib; first compound 0.4 µM) | relative viability (BI-D1870 + Olaparib; first compound 1.265 µM) | relative viability (BI-D1870 + Olaparib; first compound 4 µM)
1 | NCI-H1650 | 0.53 | 0.347 | 0.401 | 0.323 | 0.252 | 0.214 | 0.223 | 0.209 | 0.184 | 0.186 | 0.822 | 0.715 | 0.721 | 0.753 | 0.738 | 0.722 | 0.767 | 0.788 | 0.943 | 0.817
2 | BEN | 0.557 | 0.618 | 0.438 | 0.548 | 0.605 | 0.897 | 0.793 | 0.971 | 0.979 | 0.663 | 0.713 | 0.728 | 0.784 | 0.749 | 0.621 | 1.23 | 1 | 1.02 | 1.11 | 0.806
3 | EMC-BAC-2 | 0.317 | 0.248 | 0.316 | 0.288 | 0.259 | 1.18 | 0.964 | 1.02 | 1.09 | 1.05 | 0.823 | 0.887 | 0.815 | 0.951 | 0.899 | 0.513 | 0.451 | 0.453 | 0.512 | 0.455
4 | NCI-H2170 | 0.701 | 0.715 | 0.713 | 0.648 | 0.574 | – | – | – | – | – | 0.309 | 0.238 | 0.278 | 0.275 | 0.234 | 0.707 | 0.605 | 0.575 | 0.587 | 0.448
5 | NCI-H1299 | – | – | – | – | – | 1 | 0.985 | 1.02 | 0.959 | 0.839 | 0.903 | 0.957 | 0.95 | 0.915 | 0.743 | 1.04 | 1 | 0.996 | 0.892 | 0.545
6 | EBC-1 | – | – | – | – | – | 0.685 | 0.435 | 0.417 | 0.323 | 0.123 | 0.195 | 0.19 | 0.205 | 0.188 | 0.158 | 0.738 | 0.581 | 0.574 | 0.337 | 0.183
7 | NCI-H1648 | 0.479 | 0.48 | 0.371 | 0.566 | 0.412 | – | – | – | – | – | – | – | – | – | – | 0.919 | 0.691 | – | 0.633 | 0.846
8 | NCI-H1792 | – | – | – | – | – | 1.03 | 0.915 | 0.942 | 1.13 | 0.841 | 0.926 | 0.953 | 0.881 | 0.967 | 0.794 | 0.434 | 0.334 | 0.369 | 0.812 | 0.315
9 | ChaGo-K-1 | 0.224 | 0.203 | 0.201 | 0.236 | 0.22 | 1.03 | 1.05 | 0.608 | 0.942 | 0.933 | – | – | – | – | – | 0.451 | 0.379 | 0.414 | 0.412 | 0.303
10 | LK-2 | 0.146 | 0.175 | 0.172 | 0.175 | 0.148 | – | – | – | – | – | 1.01 | 0.888 | 0.985 | 1.04 | 0.977 | 0.913 | 0.655 | 0.683 | 0.834 | 0.71
11 | NCI-H1944 | 0.293 | 0.233 | 0.25 | 0.262 | 0.235 | – | – | – | – | – | 0.932 | 0.669 | 0.659 | 0.835 | 0.768 | 0.455 | 0.412 | 0.368 | 0.398 | 0.367
12 | NCI-H1793 | 0.376 | 0.246 | 0.207 | 0.275 | 0.226 | – | – | – | – | – | 0.937 | 0.557 | 0.679 | 1.03 | 0.971 | 1.05 | 0.708 | 0.799 | 1.02 | 0.898
13 | A549 | – | – | – | – | – | – | – | – | – | – | 1.16 | 0.875 | 1.06 | 0.908 | 0.992 | 0.382 | 0.382 | 0.268 | 0.379 | 0.399
14 | NCI-H358 | 0.124 | 0.0956 | 0.118 | 0.127 | 0.113 | – | – | – | – | – | 0.501 | 0.413 | 0.551 | 0.504 | 0.556 | 0.685 | 0.548 | 0.592 | 0.485 | 0.35
15 | NCI-H1563 | – | – | – | – | – | 0.908 | 0.81 | 0.802 | 0.852 | 0.784 | 1.08 | 0.898 | 0.817 | 0.9 | 0.917 | – | – | – | – | –
16 | NCI-H1395 | 0.818 | 0.685 | 0.718 | 0.72 | 0.721 | – | – | – | – | – | 1.13 | 0.895 | 0.989 | 1.13 | 0.79 | 0.448 | 0.436 | 0.429 | 0.489 | 0.406
17 | NCI-H522 | 0.559 | 0.648 | 0.583 | 0.505 | 0.533 | – | – | – | – | – | – | – | – | – | – | 0.7 | 0.627 | 0.67 | 0.667 | 0.62
18 | IA-LM | – | – | – | – | – | 1.05 | 0.842 | 0.756 | 0.764 | 0.204 | 0.972 | 0.906 | 0.862 | 0.614 | 0.213 | 0.812 | 0.739 | 0.913 | 0.851 | 0.506
19 | NCI-H1703 | – | – | – | – | – | 0.377 | 0.315 | 0.353 | 0.288 | 0.21 | 1.07 | 0.732 | 1.29 | 1.11 | 0.796 | – | 0.439 | 0.328 | 0.487 | 0.315
20 | NCI-H441 | 0.56 | 0.531 | 0.59 | 0.504 | 0.407 | 0.749 | 0.535 | 0.796 | 0.777 | 0.71 | – | – | – | – | – | 0.682 | 0.549 | 0.569 | 0.537 | 0.492
21 | LCLC-103H | 0.44 | 0.285 | 0.465 | 0.565 | 0.49 | 1.28 | 1.09 | 1.06 | 1.17 | 1.06 | – | – | – | – | – | 0.813 | 0.68 | 0.676 | 0.764 | 0.671
22 | SW 900 | 0.472 | 0.542 | 0.463 | 0.408 | 0.284 | – | – | – | – | – | – | – | – | – | – | 0.826 | 0.765 | 0.711 | 0.733 | 0.964
